Values of other authors in patent US12496272B1, “Stable epinephrine suspension formulation for inhalation with HFO propellant” (Amphastar Pharmaceuticals, Inc., priority 2024, dated 2025).

SMILES | Log P (octanol/water) | Water solubility (at 25° C.) [at 25 °C ppm]
FC(C(F)(F)F)C(F)(F)F [HFA-227, 1,1,1,2,3,3,3-heptafluoropropane] | 2.1 | –
F/C=C/C(F)(F)F [HFO-1234ze(E), trans-1,3,3,3-tetrafluoropropene] | 1.3 | –
FCC(F)(F)F [HFA-134a, 1,1,1,2-tetrafluoroethane] | 1.1 | 2220
